Measured values: patent publication US8211893B2, “Protein kinase C zeta inhibition to treat diabetic retinopathy” (The Penn State Research Foundation, priority 2006, dated 2012)
“Also recorded” adds a separate entry of the source. Blank lines part the entries; values can stand above or below the compound they belong to. No end group written: not given here. *: point of attachment. Myristoyl = CCCCCCCCCCCCCC(=O)*

Legend:
[1] = tested on: bovine retinal endothelial cells (BREC); experiment: In vitro permeability assay, VEGF stimulated 70 kDa RITC-dextran flux across BREC monolayer on transwell filters; type: cell-based; conditions: for effect on VEGF stimulated endothelial permeability to 70 kDa RITC-dextran: peptide inhibitor 50 nM
Procedure: Endothelial cells are grown to confluence on transwell filters. After the cells have grown to confluence, an additional 2 to 4 days is necessary to allow formation of a tight barrier. This may vary depending on the cell preparation.
Solute flux is measured by applying 10 micromolar or 20 micromolar RITC-dextran or FITC-BSA to the apical chamber of inserts with a confluent endothelial cell monolayer. The specific experiment may dictate when to perturb the system with, for example, a PKC inhibitor, relative to the time of measuring flux. Remember to consider the time for the perturbation to effect transport rates, for example, time for synthesis and assembly or disassembly of the junctional complex.
One half-hour after addition of fluorescent solute, 50 microliter samples are taken from the basolateral chamber. This is continued on the half-hour for up to four hours. The samples are placed into the 96 well black/clear bottom plate. A sample is taken from the apical chamber at the last time point and also placed in the 96 well plate. […] Fluorescence of each aliquot is quantified on a fluorescence plate reader. We use a FluorImager 595. A blank sample with media only but no fluorescent marker should be used for background subtraction. The rate of diffusive flux (Po) is calculated by the following formula at each time point: Po=[(FA/Δt)VA]/(FLA) where Po=diffusive flux (cm/s); FA=basolateral fluorescence; FL=apical fluorescence; Δt=change in time; A=surface area of the filter (cm^2); VA=volume of the basolateral chamber (cm^3). Note that unless the volume removed from the basolateral chamber is replaced, the volume in the basolateral chamber changes for each time point calculated. The data may be reduced as a rate over the total time course of the experiment if the change remains linear. This is done by plotting the change in fluorescence accumulated in the basolateral chamber corrected for fluorescence in the apical chamber, volume and area versus time and then determining the slope of the straight line or rate of diffusive flux, Po.
The fluorescence obtained from each time point is normalized to the fluorescence in the apical chamber. Next this ratio is corrected for the volume in the bottom chamber and this corrected ratio is plotted verses time to determine the rate of fluorescent molecule accumulation by obtaining the slope. Finally, this slope is converted from minutes to seconds and divided by the area of the filter yielding the diffusive flux in cm/s.
Bovine retinal endothelial cells (BREC) are grown to confluence on transwell filters (Costar) and treated with hydrocortisone (100 nM) to induce barrier properties. PKC zeta peptide inhibitor (50 nM, Calbiochem) is applied to the cells 30 min before addition of fluorescent-labeled tracer and VEGF (50 ng/mL, R&D Systems) is applied to the cells for 15 min before addition of tracer. RITC-labeled 70 kDa dextran (Sigma) is used as a tracer for cell permeability measures and is applied to the apical chamber at 10 micromolar. Samples are drawn from the basolateral chamber over a 4 h time course and the rate of tracer accumulation is used to determine monolayer permeability, Po, in cm/s. FIG. 2 illustrates the results of the use the myristoylated peptide inhibitor of PKC zeta on endothelial permeability to 70 kDa RITC-dextran.
Bovine retinal endothelial cells (BREC) are grown to confluence on transwell filters (Costar) and treated with hydrocortisone (100 nM) to induce barrier properties. PKC zeta peptide inhibitor (PKCζ 1) of SEQ ID No. 1 (Calbiochem) is applied to the cells at concentrations of 6.25 nM, 12.5 nM, 25 nM, and 50 nM, 30 min before addition of fluorescent-labeled tracer and VEGF (50 ng/mL, R&D Systems) is applied to the cells for 15 min before addition of tracer. […]

PKC-zeta [2] = target: T1, PKC-zeta (Homo sapiens, UniProt Q05513); experiment: IC50 determination for PKC-zeta; type: biochemical; conditions: read-out: half-maximal inhibitory concentration, IC50, for PKC-zeta
T1 sequence (Q05513 1-592): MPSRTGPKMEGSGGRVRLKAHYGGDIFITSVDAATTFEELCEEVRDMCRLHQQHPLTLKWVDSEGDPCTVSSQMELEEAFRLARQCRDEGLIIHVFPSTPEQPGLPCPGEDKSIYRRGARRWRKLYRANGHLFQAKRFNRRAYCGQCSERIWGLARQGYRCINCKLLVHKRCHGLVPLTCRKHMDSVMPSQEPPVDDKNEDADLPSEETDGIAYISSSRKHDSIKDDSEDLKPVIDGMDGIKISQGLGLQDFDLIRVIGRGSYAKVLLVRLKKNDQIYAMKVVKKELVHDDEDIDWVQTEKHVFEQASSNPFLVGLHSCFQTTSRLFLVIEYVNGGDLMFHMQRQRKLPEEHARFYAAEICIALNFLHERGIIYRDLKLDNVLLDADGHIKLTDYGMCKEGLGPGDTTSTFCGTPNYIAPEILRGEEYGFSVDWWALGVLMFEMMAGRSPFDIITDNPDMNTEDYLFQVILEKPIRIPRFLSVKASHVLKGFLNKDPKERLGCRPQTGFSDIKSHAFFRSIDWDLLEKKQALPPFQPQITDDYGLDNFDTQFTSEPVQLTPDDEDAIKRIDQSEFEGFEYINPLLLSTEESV
Procedure: Methods described in this example are used to determine the half-maximal inhibitory concentration, IC50, of a particular PKC zeta inhibitor. A PKC zeta inhibitor is incubated with […] in vitro by addition of the inhibitor to cultured BREC cells, followed by the addition of a labeled permeability marker, 70 kDa RITC dextran.

[3] = tested on: retinal albumin flux after VEGF treatment; experiment: In vivo VEGF induced retinal permeability, Evan's blue bound albumin flux; conditions: rat, intraocular injection with VEGF 50 ng, 5 h
From the text: Vascular permeability is quantified in this in vivo model by measuring albumin leakage form blood vessels into the retina. Evans blue is an acid dye of the diazo group that noncovalently binds to albumin in the blood, allowing the breakdown in blood-retinal barrier to be detected when increased vessel leakage is extravasated into the interstitial space.
Rats are used in this example and each animal is weighed and the body weight (BW) recorded for anaesthetic and dye injections. Each animal is anesthetized by intramuscular injection of 1 microliter/g BW a Ketamine/Xylazine mixture equal to […]/6.67 mg Xylazine/kg BW. […]
Both eyes are enucleated and bisected at the equator to harvest the retinas which are optionally dried thoroughly in a Speed-Vac for 5 hours. The weight of the retinas is measured with an analytical balance. […]
The obtained plasma samples are diluted 1:10000 with formamide. […] The absorbance in each well is measured at 620 and 740 nm with a plate reader. The background-subtracted absorbance (A620-A740) is calculated for each sample and the dye concentration is determined using the standard curve. […]
The PKC-zeta I1 is effective at reducing retinal albumin flux in vivo after VEGF treatment. […] Flux to albumin is measured using the albumin binding dye Evan's blue. […] Evan's blue is eluted from the retinas in formamide and read spectrophotometrically. […]

BREC cultures = experiment: Invitrogen Live/Dead assay, calcein AM and ethidium homodimer-1; type: cell-based; conditions: 10 micromolar, 24 h, confluent BREC, alone or with VEGF; listed as PKC-zeta I1
Procedure: Cell viability is measured using the Invitrogen Live/Dead assay according to manufacturer's instructions. Confluent BREC cultures are treated with 10 micromolar PKC-zeta I1 for 24 h. Cell viability is measured with calcein AM incorporation and cell death is measured by ethidium homodimer-1 staining followed by fluorescence quantification on a Molecular Devices Gemini fluorescence plate reader.

PKC-zeta [4] = target: T1, PKC-zeta; experiment: In vitro screen for PKC zeta inhibitors, Kinase-Glo Luminescent Kinase assay with CREBtide substrate; type: biochemical; design: purchased Biomol International SE-413; conditions: tested at 100 micromolar; relative to compound of formula (I)
Procedure: A screen for PKCzeta inhibitors was developed using recombinant human enzyme from Biomol International (SE-413) and CREBtide (Biomol P195) as the substrate. PKCzeta is incubated for 8 min at 30° C. in 50 microliters of buffer containing 5 mM MgCl2, 100 micromolar Na3VO4, 100 micromolar NaP2O7, 1 mM NaF. 100 micromolar PMSF, 50 mM Tris (pH 7.5), 4 micrograms of phosphatidylserine, 50 micromolar ATP, and a substrate peptide, KRREILSRRPSYR. The substrate peptide may be chemically synthesized, recombinantly produced or obtained commercially by the trade name CREBtide. Approximately 9,000 compounds from the DIVERSet collection of the ChemBridge Corporation (San Diego, Calif.) were tested at a final concentration of 100 micromolar, using the Kinase-Glo™ Luminescent Kinase assay (Promega) to measure residual ATP levels after the kinase reaction as described by the manufacturer. Compounds are identified as having inhibitory activity when they reduce PCK zeta activity by at least 50% when tested at a concentration of 100 micromolar.

inhibits PKC zeta with x-fold greater efficacy than the compound of formula (I) (PKC-zeta [4]): 1.2 fold
Compound: CCOC(=O)c1c(NC(=S)N2CCN(S(C)(=O)=O)CC2)sc(C)c1-c1ccccc1 [formula (III)]

inhibits PKC zeta with x-fold greater efficacy than the compound of formula (I) (PKC-zeta [4]): 1.8 fold
Compound: CC(C)OC(=O)c1c(-c2ccc(Cl)c(Cl)c2)csc1N [formula (IV)]

inhibits PKC zeta with x-fold greater efficacy than the compound of formula (I) (PKC-zeta [4]): 2.6 fold
Compound: CCOC(=O)c1c(NC(C)=O)sc(C)c1-c1ccc(OC)cc1 [formula (V)]

Continued, compound first:

Compound: CN(C)CCCn1cc(C2=C(c3c[nH]c4ccccc34)C(=O)NC2=O)c2ccccc21 [bisindoylmaleimide I]
effect on VEGF stimulated dextran permeability ([1]; bisindoylmaleimide I 5 micromolar, 30 min before tracer, VEGF 50 ng/mL, BREC): partly reduces VEGF stimulated permeability

Compound: CCOC(=O)c1c(NC(C)=O)sc(/C(C)=N/O)c1-c1ccccc1 [formula (I), ethyl (5E)-2-acetylimino-5-[1-(hydroxyamino)ethylidene]-4-phenyl-thiophene-3-carboxylate]
effect on VEGF induced endothelial permeability in vitro ([1]; PKC-zeta I1 at 10 and 25 micromolar, 30 min before tracer, VEGF 50 ng/mL): completely blocks VEGF induced endothelial permeability; also recorded: effectively blocks VEGF induced permeability in vitro
effect on baseline endothelial permeability ([1]; PKC-zeta I1 at 10 and 25 micromolar, no VEGF): reduces baseline permeability
IC50 (PKC-zeta [2]): 10 µM
reduction of Evan's blue bound albumin flux ([3]; about 10 micromolar final concentration in the eye): 50%
effect on VEGF induced permeability in vivo ([3]; about 10 micromolar in the eye): blocks VEGF induced permeability in vivo
cell death (ethidium homodimer-1 staining) (BREC cultures): no increase in cell death; also recorded: does not alter cell viability or increase cell death
cell viability (calcein AM incorporation) (BREC cultures): no loss of cell viability; also recorded: does not alter cell viability

Compound: myr-SIYRRGARRWRKL (Myristoyl-SIYRRGARRWRKL)
effect on VEGF stimulated endothelial permeability to 70 kDa RITC-dextran ([1]; 30 min before tracer, VEGF 50 ng/mL, BREC): reduces and prevents a VEGF stimulated increase in permeability
effect on VEGF stimulated endothelial permeability to 70 kDa RITC-dextran ([1]; 30 min before tracer, VEGF 50 ng/mL, BREC, listed as myristoylated peptide inhibitor of PKC zeta): reduced or prevented permeability
dose dependence of effect on VEGF stimulated endothelial permeability ([1]; peptide inhibitor 6.25, 12.5, 25 and 50 nM, VEGF 50 ng/mL, BREC): reduces VEGF stimulated endothelial permeability in a dose dependent manner
